Assay results from patent EP4722207A1, “OXOISOINDOLINYL-SUBSTITUTED TETRAHYDROPYRIMIDINEDIONE DERIVATIVE AND USE THEREOF” (Gluetacs Therapeutics (Shanghai) Co., Ltd., priority 2023, dated 2024).

Columns and labels:
Assay type in all cases: cell-based
[1] = molecular target: T1, CK1α (Homo sapiens, UniProt P48729+Q96SW2); test: Western-blot assay, substrate protein degradation in hPBMCs: CK1α; details: for substrate protein remaining % CK1α: 24 hours of compound treatment, 50 nM and 500 nM; for CK1α substrate protein remaining %: compounds at 50 nM and 500 nM, 24 hours
T1 construct: effects of the compounds of the present disclosure on the expression of target proteins in cells; endogenous in cells; host or cells: human PBMCs (hPBMCs)
T1 sequence (P48729 whole entry): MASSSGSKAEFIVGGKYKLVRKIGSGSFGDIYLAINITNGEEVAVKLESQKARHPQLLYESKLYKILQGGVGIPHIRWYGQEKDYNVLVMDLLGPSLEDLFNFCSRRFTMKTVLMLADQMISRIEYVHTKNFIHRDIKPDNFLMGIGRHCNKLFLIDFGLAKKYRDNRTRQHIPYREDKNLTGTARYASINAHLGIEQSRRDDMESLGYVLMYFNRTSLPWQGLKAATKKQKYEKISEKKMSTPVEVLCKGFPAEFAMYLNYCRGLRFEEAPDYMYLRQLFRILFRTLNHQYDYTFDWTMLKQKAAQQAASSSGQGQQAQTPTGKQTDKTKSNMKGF
T1 sequence (Q96SW2 whole entry): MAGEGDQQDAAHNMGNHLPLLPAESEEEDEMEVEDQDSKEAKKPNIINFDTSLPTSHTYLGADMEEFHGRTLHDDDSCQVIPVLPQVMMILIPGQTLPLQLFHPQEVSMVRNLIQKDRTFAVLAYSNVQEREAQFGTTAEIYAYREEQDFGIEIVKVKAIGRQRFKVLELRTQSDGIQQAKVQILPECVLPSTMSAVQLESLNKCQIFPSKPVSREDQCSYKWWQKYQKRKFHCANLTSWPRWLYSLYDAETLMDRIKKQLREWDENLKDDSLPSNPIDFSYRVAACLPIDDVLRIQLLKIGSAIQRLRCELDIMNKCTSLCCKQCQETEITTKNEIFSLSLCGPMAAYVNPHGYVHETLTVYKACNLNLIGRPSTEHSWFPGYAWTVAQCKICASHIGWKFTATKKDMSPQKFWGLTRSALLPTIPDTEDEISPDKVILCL
T1 sequence (Q16531 whole entry partner): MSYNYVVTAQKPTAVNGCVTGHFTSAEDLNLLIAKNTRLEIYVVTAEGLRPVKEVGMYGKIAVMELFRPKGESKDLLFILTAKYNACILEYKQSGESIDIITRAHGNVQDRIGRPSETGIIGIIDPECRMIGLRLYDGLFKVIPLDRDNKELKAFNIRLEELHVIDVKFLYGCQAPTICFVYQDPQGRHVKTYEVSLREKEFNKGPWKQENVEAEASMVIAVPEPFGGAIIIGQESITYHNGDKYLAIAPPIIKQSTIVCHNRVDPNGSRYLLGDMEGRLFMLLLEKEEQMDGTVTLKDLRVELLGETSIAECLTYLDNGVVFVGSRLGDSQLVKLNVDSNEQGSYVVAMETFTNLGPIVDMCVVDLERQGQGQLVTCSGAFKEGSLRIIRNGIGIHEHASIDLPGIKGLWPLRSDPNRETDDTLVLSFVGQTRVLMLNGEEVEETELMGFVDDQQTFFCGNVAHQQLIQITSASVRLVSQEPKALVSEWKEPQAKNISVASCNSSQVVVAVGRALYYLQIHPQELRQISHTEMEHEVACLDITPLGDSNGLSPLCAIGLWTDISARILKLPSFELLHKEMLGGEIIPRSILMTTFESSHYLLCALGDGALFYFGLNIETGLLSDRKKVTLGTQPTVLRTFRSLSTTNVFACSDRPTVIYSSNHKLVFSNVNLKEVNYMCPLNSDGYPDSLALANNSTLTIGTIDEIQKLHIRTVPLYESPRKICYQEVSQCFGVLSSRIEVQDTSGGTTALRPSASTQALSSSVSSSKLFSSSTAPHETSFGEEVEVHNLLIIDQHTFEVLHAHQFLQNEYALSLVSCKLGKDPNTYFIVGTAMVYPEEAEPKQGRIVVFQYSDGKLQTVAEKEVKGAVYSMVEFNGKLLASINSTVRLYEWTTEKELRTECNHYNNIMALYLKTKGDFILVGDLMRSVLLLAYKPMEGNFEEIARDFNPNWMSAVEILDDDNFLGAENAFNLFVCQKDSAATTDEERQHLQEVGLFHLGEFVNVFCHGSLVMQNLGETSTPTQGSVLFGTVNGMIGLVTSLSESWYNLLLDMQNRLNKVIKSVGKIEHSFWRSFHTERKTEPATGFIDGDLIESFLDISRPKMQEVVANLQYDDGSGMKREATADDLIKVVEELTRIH

[2] = molecular target: T2, IKZF1 (Homo sapiens, UniProt Q13422+Q96SW2); test: Western-blot assay, substrate protein degradation in hPBMCs: IKZF1; details: for substrate protein remaining % IKZF1: 24 hours of compound treatment, 50 nM and 500 nM; for IKZF1 substrate protein remaining %: compounds at 50 nM and 500 nM, 24 hours
T2 construct: effects of the compounds of the present disclosure on the expression of target proteins in cells; endogenous in cells; host or cells: human PBMCs (hPBMCs)

[3] = molecular target: T3, IKZF2 (Homo sapiens, UniProt Q96SW2+Q9UKS7); test: Western-blot assay, substrate protein degradation in hPBMCs: IKZF2; details: for substrate protein remaining % IKZF2: 24 hours of compound treatment, 50 nM and 500 nM; for IKZF2 substrate protein remaining %: compounds at 50 nM and 500 nM, 24 hours
T3 construct: effects of the compounds of the present disclosure on the expression of target proteins in cells; endogenous in cells; host or cells: human PBMCs (hPBMCs)
T3 sequence (Q9UKS7 whole entry): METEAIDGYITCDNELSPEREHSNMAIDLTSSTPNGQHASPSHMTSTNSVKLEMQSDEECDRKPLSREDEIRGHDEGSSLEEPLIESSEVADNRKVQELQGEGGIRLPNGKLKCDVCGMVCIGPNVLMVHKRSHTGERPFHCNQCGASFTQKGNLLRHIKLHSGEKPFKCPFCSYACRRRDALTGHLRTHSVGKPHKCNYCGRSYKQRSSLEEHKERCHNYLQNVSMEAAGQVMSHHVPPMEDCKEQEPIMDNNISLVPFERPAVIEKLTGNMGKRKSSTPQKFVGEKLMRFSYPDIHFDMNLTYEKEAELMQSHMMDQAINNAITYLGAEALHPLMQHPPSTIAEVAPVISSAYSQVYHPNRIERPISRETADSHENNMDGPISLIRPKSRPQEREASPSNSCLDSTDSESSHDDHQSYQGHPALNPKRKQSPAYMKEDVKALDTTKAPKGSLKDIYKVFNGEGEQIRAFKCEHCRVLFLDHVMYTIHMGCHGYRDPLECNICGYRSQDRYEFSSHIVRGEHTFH
T3 sequence (Q96SW2 whole entry): as the sequence (Q96SW2 whole entry) above
T3 sequence (Q16531 whole entry partner): as the sequence (Q16531 whole entry partner) above

[4] = molecular target: T4, GSPT1 (Homo sapiens, UniProt P15170+Q96SW2); test: Western-blot assay, substrate protein degradation in hPBMCs: GSPT1; details: for substrate protein remaining % GSPT1: 24 hours of compound treatment, 50 nM and 500 nM; for GSPT1 substrate protein remaining %: compounds at 50 nM and 500 nM, 24 hours
T4 construct: effects of the compounds of the present disclosure on the expression of target proteins in cells; endogenous in cells; host or cells: human PBMCs (hPBMCs)
T4 sequence (P15170 whole entry): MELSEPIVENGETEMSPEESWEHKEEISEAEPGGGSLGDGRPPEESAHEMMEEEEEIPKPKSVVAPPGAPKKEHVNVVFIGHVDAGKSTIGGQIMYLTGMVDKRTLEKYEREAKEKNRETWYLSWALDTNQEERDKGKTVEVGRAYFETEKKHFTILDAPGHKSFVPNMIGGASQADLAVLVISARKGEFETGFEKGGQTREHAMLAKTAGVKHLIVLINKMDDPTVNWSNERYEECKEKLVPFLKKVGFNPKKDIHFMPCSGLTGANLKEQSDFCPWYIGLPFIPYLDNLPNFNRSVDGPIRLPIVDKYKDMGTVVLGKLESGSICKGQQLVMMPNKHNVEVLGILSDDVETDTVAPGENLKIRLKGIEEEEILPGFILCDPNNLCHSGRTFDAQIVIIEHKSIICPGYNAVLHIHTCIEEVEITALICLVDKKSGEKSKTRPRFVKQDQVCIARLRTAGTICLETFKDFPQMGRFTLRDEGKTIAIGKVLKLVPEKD
T4 sequence (Q96SW2 whole entry): as the sequence (Q96SW2 whole entry) above
T4 sequence (Q16531 whole entry partner): as the sequence (Q16531 whole entry partner) above

[5] = molecular target: T5, IKZF3 (Homo sapiens, UniProt Q96SW2+Q9UKT9); test: Western-blot assay, substrate protein degradation in hPBMCs: IKZF3; details: for substrate protein remaining % IKZF3: 24 hours of compound treatment, 50 nM and 500 nM; for IKZF3 substrate protein remaining %: compounds at 50 nM and 500 nM, 24 hours
T5 construct: effects of the compounds of the present disclosure on the expression of target proteins in cells; endogenous in cells; host or cells: human PBMCs (hPBMCs)
T5 sequence (Q9UKT9 whole entry): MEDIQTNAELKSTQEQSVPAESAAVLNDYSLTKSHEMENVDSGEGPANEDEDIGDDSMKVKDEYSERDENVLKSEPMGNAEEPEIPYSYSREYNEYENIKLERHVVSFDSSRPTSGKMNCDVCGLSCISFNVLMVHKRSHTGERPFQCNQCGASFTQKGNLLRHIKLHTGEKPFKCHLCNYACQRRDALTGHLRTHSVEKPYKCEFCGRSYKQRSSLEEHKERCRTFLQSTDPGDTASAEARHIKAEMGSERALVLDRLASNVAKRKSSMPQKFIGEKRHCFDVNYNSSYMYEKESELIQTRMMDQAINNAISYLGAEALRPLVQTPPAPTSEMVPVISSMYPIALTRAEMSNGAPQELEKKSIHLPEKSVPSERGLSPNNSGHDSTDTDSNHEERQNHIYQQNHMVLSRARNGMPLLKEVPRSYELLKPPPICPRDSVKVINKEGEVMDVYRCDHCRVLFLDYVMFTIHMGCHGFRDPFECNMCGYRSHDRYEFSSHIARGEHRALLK
T5 sequence (Q96SW2 whole entry): as the sequence (Q96SW2 whole entry) above
T5 sequence (Q16531 whole entry partner): as the sequence (Q16531 whole entry partner) above

[6] = molecular target: T6, WEE1 (Homo sapiens, UniProt P30291+Q96SW2); test: Western-blot assay, substrate protein degradation in hPBMCs: WEE1; details: for substrate protein remaining % WEE1: 24 hours of compound treatment, 50 nM and 500 nM; for WEE1 substrate protein remaining %: compounds at 50 nM and 500 nM, 24 hours
T6 construct: effects of the compounds of the present disclosure on the expression of target proteins in cells; endogenous in cells; host or cells: human PBMCs (hPBMCs)
T6 sequence (P30291 whole entry): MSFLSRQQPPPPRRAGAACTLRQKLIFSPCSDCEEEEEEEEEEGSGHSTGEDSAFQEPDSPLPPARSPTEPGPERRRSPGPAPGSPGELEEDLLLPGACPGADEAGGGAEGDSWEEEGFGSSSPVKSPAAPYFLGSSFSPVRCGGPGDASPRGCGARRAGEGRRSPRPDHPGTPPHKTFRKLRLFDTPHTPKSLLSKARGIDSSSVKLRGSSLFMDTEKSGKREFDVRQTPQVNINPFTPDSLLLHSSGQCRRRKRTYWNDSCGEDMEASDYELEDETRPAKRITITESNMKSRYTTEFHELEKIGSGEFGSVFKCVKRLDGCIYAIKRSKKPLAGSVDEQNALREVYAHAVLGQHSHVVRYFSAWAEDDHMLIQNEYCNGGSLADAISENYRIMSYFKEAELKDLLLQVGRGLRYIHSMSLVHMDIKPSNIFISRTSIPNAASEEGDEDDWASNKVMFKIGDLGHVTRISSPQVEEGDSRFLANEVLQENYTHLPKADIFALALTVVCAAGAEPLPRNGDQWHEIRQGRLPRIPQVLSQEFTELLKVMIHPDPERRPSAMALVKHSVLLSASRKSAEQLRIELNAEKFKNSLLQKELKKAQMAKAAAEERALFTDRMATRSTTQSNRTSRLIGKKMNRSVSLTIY
T6 sequence (Q96SW2 whole entry): as the sequence (Q96SW2 whole entry) above
T6 sequence (Q16531 whole entry partner): as the sequence (Q16531 whole entry partner) above

SMILES	substrate protein remaining % CK1α [1]	substrate protein remaining % IKZF1 [2]	substrate protein remaining % IKZF2 [3]	substrate protein remaining % GSPT1 [4]	substrate protein remaining % IKZF3 [5]	substrate protein remaining % WEE1 [6]	CK1α substrate protein remaining % [1]	IKZF1 substrate protein remaining % [2]	IKZF2 substrate protein remaining % [3]	GSPT1 substrate protein remaining % [4]	IKZF3 substrate protein remaining % [5]	WEE1 substrate protein remaining % [6]
O=C1CCN(N2Cc3cc(CN4C[C@H]5C[C@@H]4CN5c4cccc(Cl)c4Cl)ccc3C2=O)C(=O)N1 [GT-07427, 1-(5-(((1R,4R)-5-(2,3-dichlorophenyl)-2,5-diazabicyclo[2.2.1]heptan-2-yl)methyl)-1-oxoisoindolin-2-yl)dihydropyrimidine-2,4(1H,3H)-dione]	A (0% ≤ substrate protein remaining % ≤ 80%)	A (0% ≤ substrate protein remaining % ≤ 80%)	B (80%< substrate protein remaining %≤ 100%)	A (0% ≤ substrate protein remaining % ≤ 80%)	B (80%< substrate protein remaining %≤ 100%)	A (0% ≤ substrate protein remaining % ≤ 80%)						
O=C1CCN(N2C(=O)c3ccc(CN4CCC(c5c[nH]c6ncccc56)CC4)cc3C2=O)C(=O)N1 [GT-07582, 5-((4-(1H-pyrrolo[2,3-b]pyridin-3-yl)piperidin-1-yl)methyl)-2-(2,4-dioxotetrahydropyrimidin-1(2H)-yl)isoindoline-1,3-dione]	B (80%< substrate protein remaining %≤ 100%)	A (0% ≤ substrate protein remaining % ≤ 80%)	A (0% ≤ substrate protein remaining % ≤ 80%)	A (0% ≤ substrate protein remaining % ≤ 80%)	B (80%< substrate protein remaining %≤ 100%)	A (0% ≤ substrate protein remaining % ≤ 80%)						
O=C1CCN(N2C(=O)c3ccc(CN4CCN(Cc5ccccc5-c5ccc(Cl)cc5)CC4)cc3C2=O)C(=O)N1 [GT-06432, 5-((4-((4'-chloro-[1,1'-biphenyl]-2-yl)methyl)piperazin-1-yl)methyl)-2-(2,4-dioxotetrahydropyrimidin-1(2H)-yl)isoindoline-1,3-dione]							B ("B" is defined as 80%< substrate protein remaining %≤ 100%)	A ("A" is defined as 0% ≤ substrate protein remaining % ≤ 80%)	B ("B" is defined as 80%< substrate protein remaining %≤ 100%)	A ("A" is defined as 0% ≤ substrate protein remaining % ≤ 80%)	B ("B" is defined as 80%< substrate protein remaining %≤ 100%)	A ("A" is defined as 0% ≤ substrate protein remaining % ≤ 80%)
O=C1CCN(N2C(=O)c3ccc(CN4CCC(c5cccc(Br)c5)CC4)cc3C2=O)C(=O)N1 [GT-06804, 5-((4-(3-bromophenyl)piperidin-1-yl)methyl)-2-(2,4-dioxotetrahydropyrimidin-1(2H)-yl)isoindoline-1,3-dione]							A ("A" is defined as 0% ≤ substrate protein remaining % ≤ 80%)	B ("B" is defined as 80%< substrate protein remaining %≤ 100%)	B ("B" is defined as 80%< substrate protein remaining %≤ 100%)	B ("B" is defined as 80%< substrate protein remaining %≤ 100%)	B ("B" is defined as 80%< substrate protein remaining %≤ 100%)	B ("B" is defined as 80%< substrate protein remaining %≤ 100%)
O=C1CCN(N2C(=O)c3ccc(CN4CCN(c5ccc(Cl)nc5)CC4)cc3C2=O)C(=O)N1 [GT-07027, 5-((4-(6-chloropyridin-3-yl)piperazin-1-yl)methyl)-2-(2,4-dioxotetrahydropyrimidin-1(2H)-yl)isoindoline-1,3-dione]							B ("B" is defined as 80%< substrate protein remaining %≤ 100%)	B ("B" is defined as 80%< substrate protein remaining %≤ 100%)	B ("B" is defined as 80%< substrate protein remaining %≤ 100%)	A ("A" is defined as 0% ≤ substrate protein remaining % ≤ 80%)	B ("B" is defined as 80%< substrate protein remaining %≤ 100%)	A ("A" is defined as 0% ≤ substrate protein remaining % ≤ 80%)
O=C1CCN(N2Cc3cc(CN4CCN(c5cc(F)cc(F)c5)CC4)ccc3C2=O)C(=O)N1 [GT-06782, 1-(5-((4-(3,5-difluorophenyl)piperazin-1-yl)methyl)-1-oxoisoindolin-2-yl)dihydropyrimidine-2,4(1H,3H)-dione]							A ("A" is defined as 0% ≤ substrate protein remaining % ≤ 80%)	B ("B" is defined as 80%< substrate protein remaining %≤ 100%)	B ("B" is defined as 80%< substrate protein remaining %≤ 100%)	A ("A" is defined as 0% ≤ substrate protein remaining % ≤ 80%)	B ("B" is defined as 80%< substrate protein remaining %≤ 100%)	B ("B" is defined as 80%< substrate protein remaining %≤ 100%)
O=C1CCN(N2Cc3cc(CN4C5CC4CN(C(=O)C4=C(c6ccc(F)cc6)CCCC4)C5)ccc3C2=O)C(=O)N1 [GT-07376, 1-(5-((3-(4'-fluoro-3,4,5,6-tetrahydro-[1,1'-biphenyl]-2-carbonyl)-3,6-diazabicyclo[3.1.1]heptan-6-yl)methyl)-1-oxoisoindolin-2-yl)dihydropyrimidine-2,4(1H,3H)-dione]	B (80%< substrate protein remaining %≤ 100%)	B (80%< substrate protein remaining %≤ 100%)	B (80%< substrate protein remaining %≤ 100%)	B (80%< substrate protein remaining %≤ 100%)	B (80%< substrate protein remaining %≤ 100%)	A (0% ≤ substrate protein remaining % ≤ 80%)						
O=C1CCN(N2Cc3cc(CN4CCN(c5c(Cl)cncc5Cl)CC4)ccc3C2=O)C(=O)N1 [GT-07032, 1-(5-((4-(3,5-dichloropyridin-4-yl)piperazin-1-yl)methyl)-1-oxoisoindolin-2-yl)dihydropyrimidine-2,4(1H,3H)-dione]							B ("B" is defined as 80%< substrate protein remaining %≤ 100%)	B ("B" is defined as 80%< substrate protein remaining %≤ 100%)	B ("B" is defined as 80%< substrate protein remaining %≤ 100%)	A ("A" is defined as 0% ≤ substrate protein remaining % ≤ 80%)	B ("B" is defined as 80%< substrate protein remaining %≤ 100%)	B ("B" is defined as 80%< substrate protein remaining %≤ 100%)
O=C1CCN(N2Cc3cc(CN4CCC(c5ccc(Br)cc5)CC4)ccc3C2=O)C(=O)N1 [GT-06886, 1-(5-((4-(4-bromophenyl)piperidin-1-yl)methyl)-1-oxoisoindolin-2-yl)dihydropyrimidine-2,4(1H,3H)-dione]							B ("B" is defined as 80%< substrate protein remaining %≤ 100%)	B ("B" is defined as 80%< substrate protein remaining %≤ 100%)	A ("A" is defined as 0% ≤ substrate protein remaining % ≤ 80%)	A ("A" is defined as 0% ≤ substrate protein remaining % ≤ 80%)	B ("B" is defined as 80%< substrate protein remaining %≤ 100%)	B ("B" is defined as 80%< substrate protein remaining %≤ 100%)
O=C1CCN(N2C(=O)c3ccc(CN4CC(C5CCOc6cc(F)ccc65)C4)cc3C2=O)C(=O)N1 (stereo not drawn) [GT-07715, 2-(2,4-dioxotetrahydropyrimidin-1(2H)-yl)-5-((3-(7-fluorochroman-4-yl)azetidin-1-yl)methyl)isoindoline-1,3-dione]	A (0% ≤ substrate protein remaining % ≤ 80%)	B (80%< substrate protein remaining %≤ 100%)	B (80%< substrate protein remaining %≤ 100%)	A (0% ≤ substrate protein remaining % ≤ 80%)	B (80%< substrate protein remaining %≤ 100%)	B (80%< substrate protein remaining %≤ 100%)						
O=C1CCN(N2Cc3cc(CN4CCN(c5c[nH]c6ncccc56)CC4)ccc3C2=O)C(=O)N1 [GT-07502, 1-(5-((4-(1H-pyrrolo[2,3-b]pyridin-3-yl)piperazin-1-yl)methyl)-1-oxoisoindolin-2-yl)dihydropyrimidine-2,4(1H,3H)-dione]	A (0% ≤ substrate protein remaining % ≤ 80%)	A (0% ≤ substrate protein remaining % ≤ 80%)	B (80%< substrate protein remaining %≤ 100%)	A (0% ≤ substrate protein remaining % ≤ 80%)	B (80%< substrate protein remaining %≤ 100%)	A (0% ≤ substrate protein remaining % ≤ 80%)						
